Series [1] has as its target DNA gyrase subunit B (Escherichia coli) (UniProt P0AES6). Put plainly: Inhibition of Escherichia coli GyrB at 100 uM.
Series [2] has as its target DNA gyrase subunit B (Staphylococcus aureus) (UniProt P0A0K8). Put plainly: Inhibition of Staphylococcus aureus GyrB at 100 uM.
Series [3] is filed under the species Danio rerio. The series can be described thus: Cardiotoxic inhibition of ERG channel in Zebrafish assessed as change in heart rate of ventricles at 1 uM to 30 uM after 4 hrs. The conditions noted are these: in vivo. Format: organism-based.
For series [4], the system named is Mycobacterium tuberculosis. Put plainly: Antimycobacterial activity against Mycobacterium tuberculosis H37Rv ATCC 27294 incubated for 7 days by microplate alamar blue assay method. The series is classed as functional. The note with it: H37Rv ATCC 27294, 168 h.
The species entered for series [5] is Danio rerio. The series can be described thus: Cardiotoxic inhibition of ERG channel in Zebrafish assessed as change in atrio ventricular beats ratio at 1 uM to 30 uM after 4 hrs. Format: organism-based, Cardiac ventricle. The conditions noted are these: in vivo.
For series [6], the target named is DNA gyrase subunit B (Mycobacterium smegmatis) (UniProt P0C559). The series can be described thus: Binding affinity to Mycobacterium smegmatis GyrB assessed as increase in protein-compound complex stability by measuring right side positive shift of melting temperature by SYPRO-orange dye based differential scanning fluorimetry. The conditions noted are these: Mycolicibacterium smegmatis. For orientation: Differential scanning fluorimetry follows unfolding on heating by fluorescence.
Sequence of DNA gyrase subunit B (Mycobacterium smegmatis) (P0C559 2-675 limits assumed): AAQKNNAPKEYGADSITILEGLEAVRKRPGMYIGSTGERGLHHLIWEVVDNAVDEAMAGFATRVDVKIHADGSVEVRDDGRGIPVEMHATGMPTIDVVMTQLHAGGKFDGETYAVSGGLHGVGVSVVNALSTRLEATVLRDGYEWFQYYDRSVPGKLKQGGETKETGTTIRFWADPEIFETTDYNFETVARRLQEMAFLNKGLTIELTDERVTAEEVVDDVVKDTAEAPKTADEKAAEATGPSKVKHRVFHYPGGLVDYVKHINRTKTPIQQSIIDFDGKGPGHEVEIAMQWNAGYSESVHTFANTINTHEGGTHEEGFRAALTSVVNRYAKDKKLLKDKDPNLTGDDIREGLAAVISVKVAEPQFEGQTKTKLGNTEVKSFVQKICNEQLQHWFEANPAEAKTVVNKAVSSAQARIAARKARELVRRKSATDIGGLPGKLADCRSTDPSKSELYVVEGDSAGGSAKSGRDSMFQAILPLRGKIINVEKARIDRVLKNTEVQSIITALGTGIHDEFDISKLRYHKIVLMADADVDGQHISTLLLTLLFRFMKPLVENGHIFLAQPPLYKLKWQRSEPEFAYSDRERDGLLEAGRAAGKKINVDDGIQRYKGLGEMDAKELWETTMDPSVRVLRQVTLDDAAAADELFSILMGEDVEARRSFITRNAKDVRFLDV

For series [7], the species on record is Danio rerio. Put plainly: Cardiotoxic inhibition of ERG channel in Zebrafish assessed as change in heart rate of atria at 1 uM to 30 uM after 4 hrs. Format: organism-based. The note with it: in vivo.
Another series has as its target DNA gyrase subunit B (Mycobacterium smegmatis, UniProt P0C559). The series can be described thus: Inhibition of Mycobacterium smegmatis GyrB ATPase activity expressed in Escherichia coli BL21 (DE3) pLysS cells after 100 mins by inorganic phosphate release detection based malachite green reagent assay. On the set-up: species or system Mycolicibacterium smegmatis.
Series [8] concerns the target DNA gyrase subunit A/DNA gyrase subunit B (Mycobacterium tuberculosis (strain ATCC 25618 / H37Rv), UniProt P9WG45+P9WG47). The series can be described thus: Inhibition of Mycobacterium tuberculosis GyrA/GyrB using relaxed pBR322 substrate incubated for 30 mins by ethidium bromide staining and electrophoresis based DNA supercoiling assay.
Series [9] is described as follows: Cytotoxicity against mouse RAW264.7 cells assessed as inhibition of cell growth at 50 uM after 48 hrs by MTT assay. The series is classed as cell-based. The note with it: read-out: GI. (Tetrazolium assays rely on reduction of a dye to a coloured formazan, in cell work by metabolically active cells.)
The species entered for series [10] is Danio rerio. The series can be described thus: Cardiotoxic inhibition of ERG channel in Zebrafish assessed as change in atrio ventricular beats ratio at 30 uM after 4 hrs. The series is classed as organism-based, Cardiac ventricle. The conditions noted are these: in vivo.
The species entered for series [11] is Danio rerio. Put plainly: Cardiotoxic inhibition of ERG channel in Zebrafish assessed as change in heart rate of atria at 30 uM after 4 hrs. The series is classed as organism-based. The conditions noted are these: in vivo.
The species entered for series [12] is Danio rerio. The series can be described thus: Cardiotoxic inhibition of ERG channel in Zebrafish assessed as change in heart rate of ventricles at 30 uM after 4 hrs. The conditions noted are these: in vivo. The series is classed as organism-based.
The species named for series [13] is Danio rerio. Put plainly: Cardiotoxic inhibition of ERG channel in Zebrafish assessed as change in heart rate of ventricles at 1 uM to 10 uM after 4 hrs. The series is classed as organism-based. The conditions noted are these: in vivo.
For series [14], the species on record is Danio rerio. The series can be described thus: Cardiotoxic inhibition of ERG channel in Zebrafish assessed as change in heart rate of atria at 1 uM to 10 uM after 4 hrs. The note with it: in vivo. Format: organism-based.
The species entered for series [15] is Danio rerio. Put plainly: Cardiotoxic inhibition of ERG channel in Zebrafish assessed as change in atrio ventricular beats ratio at 1 to 10 uM after 4 hrs. The series is classed as organism-based, Cardiac ventricle. The note with it: in vivo.
The species entered for series [16] is Danio rerio. The series can be described thus: Cardiotoxic inhibition of ERG channel in Zebrafish assessed as change in heart rate of atria at 20 uM after 4 hrs. The conditions noted are these: in vivo. Format: organism-based.
The species entered for series [17] is Danio rerio. The series can be described thus: Cardiotoxic inhibition of ERG channel in Zebrafish assessed as change in heart rate of ventricles at 20 uM after 4 hrs. Format: organism-based. The conditions noted are these: in vivo.
For series [18], the species on record is Danio rerio. The series can be described thus: Cardiotoxic inhibition of ERG channel in Zebrafish assessed as change in atrio ventricular beats ratio at 20 uM after 4 hrs. Format: organism-based, Cardiac ventricle. The conditions noted are these: in vivo.

Values after ≈ are worked out from the molar mass of the structure shown. Active and inactive are the calls of the source. The rule behind the calls is not given here.

Sequence of DNA gyrase subunit B (P0C559 whole entry): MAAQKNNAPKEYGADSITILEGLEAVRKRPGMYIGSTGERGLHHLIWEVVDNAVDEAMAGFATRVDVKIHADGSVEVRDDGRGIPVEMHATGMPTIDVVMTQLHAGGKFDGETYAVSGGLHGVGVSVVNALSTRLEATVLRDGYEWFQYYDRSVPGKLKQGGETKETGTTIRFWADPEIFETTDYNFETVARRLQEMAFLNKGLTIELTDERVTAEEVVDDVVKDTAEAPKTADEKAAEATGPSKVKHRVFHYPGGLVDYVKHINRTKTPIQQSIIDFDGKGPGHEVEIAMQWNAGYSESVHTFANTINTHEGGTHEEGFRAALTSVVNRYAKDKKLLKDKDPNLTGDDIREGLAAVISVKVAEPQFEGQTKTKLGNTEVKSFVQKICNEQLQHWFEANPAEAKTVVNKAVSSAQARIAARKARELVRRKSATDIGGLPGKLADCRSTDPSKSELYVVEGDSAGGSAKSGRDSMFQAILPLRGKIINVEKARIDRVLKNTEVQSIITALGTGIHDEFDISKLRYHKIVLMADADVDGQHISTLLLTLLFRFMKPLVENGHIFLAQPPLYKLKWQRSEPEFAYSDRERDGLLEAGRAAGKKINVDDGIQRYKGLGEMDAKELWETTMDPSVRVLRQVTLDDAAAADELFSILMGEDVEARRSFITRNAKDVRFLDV
Sequence of DNA gyrase subunit A/DNA gyrase subunit B (P9WG45 whole entry): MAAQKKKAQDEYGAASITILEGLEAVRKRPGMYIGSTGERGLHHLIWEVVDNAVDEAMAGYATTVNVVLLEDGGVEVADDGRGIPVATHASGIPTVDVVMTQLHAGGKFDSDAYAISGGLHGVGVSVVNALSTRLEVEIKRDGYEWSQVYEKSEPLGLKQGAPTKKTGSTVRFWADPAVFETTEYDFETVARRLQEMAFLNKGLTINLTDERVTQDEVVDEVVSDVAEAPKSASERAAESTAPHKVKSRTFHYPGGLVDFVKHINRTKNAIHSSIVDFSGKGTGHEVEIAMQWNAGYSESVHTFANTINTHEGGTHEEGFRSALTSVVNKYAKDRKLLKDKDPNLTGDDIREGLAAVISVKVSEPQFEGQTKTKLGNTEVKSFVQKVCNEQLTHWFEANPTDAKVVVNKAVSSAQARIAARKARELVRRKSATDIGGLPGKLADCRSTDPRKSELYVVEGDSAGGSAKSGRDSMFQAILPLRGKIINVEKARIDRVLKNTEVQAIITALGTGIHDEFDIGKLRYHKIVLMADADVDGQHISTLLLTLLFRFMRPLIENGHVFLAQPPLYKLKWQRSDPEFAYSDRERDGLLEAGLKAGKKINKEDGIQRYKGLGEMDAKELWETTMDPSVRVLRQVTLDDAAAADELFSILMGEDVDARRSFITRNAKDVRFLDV
Sequence of DNA gyrase subunit A/DNA gyrase subunit B (P9WG47 whole entry): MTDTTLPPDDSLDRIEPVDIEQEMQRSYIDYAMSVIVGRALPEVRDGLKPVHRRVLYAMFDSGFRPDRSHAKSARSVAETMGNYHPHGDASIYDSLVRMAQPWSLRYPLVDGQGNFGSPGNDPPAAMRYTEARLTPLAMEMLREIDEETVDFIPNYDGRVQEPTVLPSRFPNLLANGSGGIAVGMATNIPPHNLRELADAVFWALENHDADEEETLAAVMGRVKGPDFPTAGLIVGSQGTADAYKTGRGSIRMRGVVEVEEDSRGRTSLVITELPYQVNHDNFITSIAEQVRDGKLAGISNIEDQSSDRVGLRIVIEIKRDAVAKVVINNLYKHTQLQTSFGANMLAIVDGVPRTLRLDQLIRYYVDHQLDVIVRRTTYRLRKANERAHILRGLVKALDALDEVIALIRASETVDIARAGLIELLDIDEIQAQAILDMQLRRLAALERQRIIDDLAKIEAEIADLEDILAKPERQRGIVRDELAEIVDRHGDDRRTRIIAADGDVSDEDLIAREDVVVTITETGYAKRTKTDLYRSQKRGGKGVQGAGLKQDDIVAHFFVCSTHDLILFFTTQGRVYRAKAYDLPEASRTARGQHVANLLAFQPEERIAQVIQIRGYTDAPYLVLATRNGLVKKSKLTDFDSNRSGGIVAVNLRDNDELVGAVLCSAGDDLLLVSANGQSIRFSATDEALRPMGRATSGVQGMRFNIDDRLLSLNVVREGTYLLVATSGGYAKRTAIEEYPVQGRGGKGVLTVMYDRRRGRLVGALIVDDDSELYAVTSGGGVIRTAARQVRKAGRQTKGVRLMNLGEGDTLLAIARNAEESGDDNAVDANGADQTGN
Sequence of DNA gyrase subunit B (Staphylococcus aureus) (P0A0K8 2-644 limits assumed): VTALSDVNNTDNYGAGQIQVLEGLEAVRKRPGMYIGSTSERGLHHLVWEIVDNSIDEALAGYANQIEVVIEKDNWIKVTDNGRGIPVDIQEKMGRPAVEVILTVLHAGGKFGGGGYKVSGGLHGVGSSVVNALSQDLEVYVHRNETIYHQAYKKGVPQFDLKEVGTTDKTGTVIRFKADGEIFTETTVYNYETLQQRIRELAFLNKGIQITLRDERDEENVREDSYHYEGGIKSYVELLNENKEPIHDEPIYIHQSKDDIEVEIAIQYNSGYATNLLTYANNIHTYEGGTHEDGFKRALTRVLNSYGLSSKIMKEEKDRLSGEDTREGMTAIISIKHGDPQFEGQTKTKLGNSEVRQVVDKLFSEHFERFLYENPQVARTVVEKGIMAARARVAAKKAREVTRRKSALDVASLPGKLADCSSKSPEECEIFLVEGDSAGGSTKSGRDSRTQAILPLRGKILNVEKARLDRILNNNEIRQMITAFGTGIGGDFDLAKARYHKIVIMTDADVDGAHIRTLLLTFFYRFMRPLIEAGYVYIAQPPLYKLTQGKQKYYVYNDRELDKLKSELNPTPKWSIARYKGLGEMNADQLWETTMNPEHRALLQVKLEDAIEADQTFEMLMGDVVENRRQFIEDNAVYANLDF

One may read the MIC as the least concentration at which growth counts as inhibited. Lower therefore signals a more susceptible organism. Broadly, the ΔTm is the shift of the melting midpoint relative to a reference. A word on the IC50: it is the concentration that inhibits the measured activity by half. Read a high IC50 as weaker potency in that assay. `COc1ccc2nc(C)cc(N3CCC(NC(=S)Nc4ccc(Cl)cc4)CC3)c2c1`: the inhibition entry in [1] and in series [2] was “inactive” in each case. The Activity result in the series filed under Danio rerio [3], in the series filed under Danio rerio [5] and in the series listed under Danio rerio [7] was “Non-toxic” in each case. Also, the lowest concentration to inhibit growth in [4] (MIC) was 3.47 µM (≈ 1.53 µg/mL). For the same molecule, the ΔTm in [6] was determined as 3.1 °C. The IC50 was 0.95 µM at DNA gyrase subunit B and 0.62 µM in [8]. In addition, in [9], the inhibition at 48 h, 50 µM was 29.7%.
For `COc1ccc2nc(C)cc(N3CCC(NC(=S)Nc4ccc(C)cc4)CC3)c2c1`, the Activity entry was “Toxic” in the series listed under Danio rerio [10]; “Toxic” in the series listed under Danio rerio [11]; “Toxic” in the series filed under Danio rerio [12]; “Non-toxic” in the series filed under Danio rerio [13]; “Non-toxic” in the series filed under Danio rerio [14]; “Non-toxic” in the series listed under Danio rerio [15]. In series [4], this molecule yielded an MIC of 7.28 µM (≈ 3.06 µg/mL). Also, the results for the IC50 (against DNA gyrase subunit B; in [8]) were 11.1 µM and 7.94 µM, respectively. Also, the inhibition at 48 h, 50 µM in series [9] was found to be 44.9%.
In the case of `CC(C)(C)c1ccc(C(O)CCCN2CCC(C(O)(c3ccccc3)c3ccccc3)CC2)cc1` (stereo not given) [TERFENADINE], the Activity entry in the series listed under Danio rerio [16], in the series listed under Danio rerio [17] and in the series listed under Danio rerio [18] was “Toxic” each time.
With `COc1ccc(NC(=S)NC2CCN(c3cc(C)nc4ccc(OC)cc34)CC2)cc1`, the MIC in series [4] stood at 15.8 µM (≈ 6.92 µg/mL). In addition, the IC50 against DNA gyrase subunit B came out at 10.1 µM; in series [8], 6.17 µM. In addition, the inhibition at 48 h, 50 µM in series [9] came out at 31.8%.
On to `Cc1cc(N2CCC(NC(=O)Nc3ccccc3)CC2)c2ccccc2n1`, for which the MIC in series [4] was 25.8 µM (≈ 9.31 µg/mL). Moreover, the values for the IC50 (at DNA gyrase subunit B; in series [8]) were 17.3 µM and 9.79 µM, respectively. Moreover, the inhibition at 48 h, 50 µM in [9] was 33.9%.
In series [4], `Cc1cc(N2CCC(NC(=O)Nc3ccccc3)CC2)c2cc(C(F)(F)F)ccc2n1` gave an MIC of 29.4 µM (≈ 12.6 µg/mL). For the same molecule, the results for the IC50 (at DNA gyrase subunit B; in [8]) were 14.9 µM and 8.3 µM, respectively. Moreover, the inhibition at 48 h, 50 µM in series [9] worked out at 20.1%.
For `COc1ccc(NC(=O)NC2CCN(c3cc(C)nc4ccc(OC)cc34)CC2)cc1`, in that order: 12.6 µM (≈ 5.29 µg/mL), 9.25 µM, 5.86 µM and 19.6%.
The molecule `Cc1cc(N2CCC(NC(=S)Nc3ccc([N+](=O)[O-])cc3)CC2)c2cc(F)ccc2n1` yielded an MIC in series [4] of 63.3 µM (≈ 27.8 µg/mL). Moreover, the IC50 worked out at 56.1 µM at DNA gyrase subunit B and 25.5 µM in [8]. Also, the inhibition at 48 h, 50 µM in [9] was determined as 40.7%.
For the molecule `Cc1cc(N2CCC(NC(=S)Nc3ccc(F)cc3)CC2)c2ccccc2n1`, inhibition of growth in series [4] (MIC) required 36.1 µM (≈ 14.3 µg/mL). The values for the IC50 (against DNA gyrase subunit B; in series [8]) were 29.8 µM and 16.7 µM, respectively. For the same molecule, the inhibition at 48 h, 50 µM in series [9] was determined as 32.9%.
Turning to `COc1ccc2nc(C)cc(N3CCC(NC(=S)Nc4ccc(F)cc4)CC3)c2c1`, 14.7 µM (≈ 6.25 µg/mL) was the least that counted as inhibitory in series [4] (MIC). The IC50 at DNA gyrase subunit B turned out to be 8.7 µM; in [8] it was 2.31 µM. The inhibition at 48 h, 50 µM in series [9] worked out at 29.3%.
In series [4], `Cc1cc(N2CCC(NC(=O)Nc3ccc(F)cc3)CC2)c2ccccc2n1` displayed an MIC of 34.1 µM (≈ 12.9 µg/mL). Also, the IC50 on DNA gyrase subunit B was determined as 34.9 µM; in series [8], 19.7 µM. For the same molecule, the inhibition at 48 h, 50 µM in [9] was determined as 49.4%.
